Data as given in patent publication US20120094964A1, “SULFAMOYL BENZOIC ACID DERIVATIVES AS TRPM8 ANTAGONISTS” (priority 2009, published 2012).

Biological target: T1, human TRPM8 (Homo sapiens, UniProt Q7Z2W7)
T1 construct: expressed in transfected cells
Assay: In Vitro human TRPM8 Functional Assay (intracellular Ca2+, Fluo4, FDSS, menthol activation)
Type: cell-based
Conditions: HEK293 cells stably expressing human TRPM8; activation with L-(-)-Menthol; 11-point dose-response
Method in brief: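 Fluo4-loaded HEK293 cells stably expressing TRPM8 were preincubated with compound for 5 min at room temperature, then stimulated with L-menthol (20 μl of 90 μM stock) while fluorescence was read. IC50 values come from 11-point curves fitted to the mean of duplicate wells.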

T1 sequence (Q7Z2W7 whole entry): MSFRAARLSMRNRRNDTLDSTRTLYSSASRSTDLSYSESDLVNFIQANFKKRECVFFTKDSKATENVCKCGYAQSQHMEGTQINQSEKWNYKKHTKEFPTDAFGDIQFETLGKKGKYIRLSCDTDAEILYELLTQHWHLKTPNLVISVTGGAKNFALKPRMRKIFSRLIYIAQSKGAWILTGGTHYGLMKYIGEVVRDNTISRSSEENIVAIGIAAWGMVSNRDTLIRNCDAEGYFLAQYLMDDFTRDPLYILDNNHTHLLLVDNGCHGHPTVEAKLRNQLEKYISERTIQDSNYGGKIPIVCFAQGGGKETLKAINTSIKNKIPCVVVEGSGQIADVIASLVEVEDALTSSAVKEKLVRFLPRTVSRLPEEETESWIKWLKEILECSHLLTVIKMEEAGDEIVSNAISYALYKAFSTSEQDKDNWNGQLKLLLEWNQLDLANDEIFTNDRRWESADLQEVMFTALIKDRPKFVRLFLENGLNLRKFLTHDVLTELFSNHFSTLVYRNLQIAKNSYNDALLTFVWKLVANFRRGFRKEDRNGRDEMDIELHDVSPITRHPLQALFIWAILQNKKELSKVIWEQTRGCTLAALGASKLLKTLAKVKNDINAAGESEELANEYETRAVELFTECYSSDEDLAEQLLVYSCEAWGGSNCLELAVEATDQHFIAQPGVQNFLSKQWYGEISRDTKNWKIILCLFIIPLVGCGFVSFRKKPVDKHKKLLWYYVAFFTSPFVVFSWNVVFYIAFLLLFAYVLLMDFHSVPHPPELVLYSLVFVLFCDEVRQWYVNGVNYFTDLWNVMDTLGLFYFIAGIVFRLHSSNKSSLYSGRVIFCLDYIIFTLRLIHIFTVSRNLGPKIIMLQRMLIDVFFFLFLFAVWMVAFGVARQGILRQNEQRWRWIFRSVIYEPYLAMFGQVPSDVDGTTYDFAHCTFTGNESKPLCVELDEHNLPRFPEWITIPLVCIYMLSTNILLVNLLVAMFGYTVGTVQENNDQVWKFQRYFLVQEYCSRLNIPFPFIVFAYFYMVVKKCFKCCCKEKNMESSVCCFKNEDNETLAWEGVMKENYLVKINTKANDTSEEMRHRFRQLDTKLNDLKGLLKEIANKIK

IC50 [nM]	Compound
1000 to 10000	O=C(O)c1cc(S(=O)(=O)N(Cc2ccccc2)c2ccc(Cl)cc2)ccc1Cl [Example 122, 5-(N-Benzyl-N-(4-chlorophenyl)sulfamoyl)-2-chlorobenzoic acid]
1000 to 10000	COc1ccc(N(Cc2ccccc2)S(=O)(=O)c2cc(C(=O)O)ccc2Cl)cc1 [Example 124, 3-(N-Benzyl-N-(4-methoxyphenyl)sulfamoyl)-4-chlorobenzoic acid]
1000 to 10000	Cc1cc(C)c(S(=O)(=O)N(Cc2ccccc2)c2ccccn2)c(C)c1 [Example 127, N-Benzyl-2,4,6-trimethyl-N-(pyridin-2-yl)benzene-sulfonamide]
1000 to 10000	O=S(=O)(c1cccc2cccnc12)N(Cc1ccccc1)c1ccccn1 [Example 128, N-Benzyl-N-(pyridin-2-yl) quinoline-8-sulfonamide]
1000 to 10000	O=S(=O)(c1ccccc1)N(Cc1ccccc1)c1ccccn1 [Example 131, N-Benzyl-N-(pyridin-2-yl)benzenesulfonamide]
1000 to 10000	COc1ccc(OC)c(C(C)N(c2cccc(F)c2)S(=O)(=O)c2cc(F)ccc2C)c1 (stereo not drawn) [Example 136, N-(1-(2,5-Dimethoxyphenyl)ethyl)-5-fluoro-N-(3-fluorophenyl)-2-methyl-benzenesulfonamide]
1000 to 10000	COc1cccc(C(C)N(c2ccccc2)S(=O)(=O)c2cccc(F)c2)c1 (stereo not drawn) [Example 138, 3-Fluoro-N-(1-(3-methoxy-phenyl)ethyl)-N-phenyl-benzenesulfonamide]
< 1000	Cc1cc(C(=O)O)ccc1S(=O)(=O)N(Cc1ccccc1)c1ncc(C(F)(F)F)cc1Cl [Example 145, 4-(N-Benzyl-N-(3-chloro-5-(trifluoromethyl)pyridin-2-yl)sulfamoyl)-3-methylbenzoic acid]
< 1000	COc1cc(C(=O)O)ccc1S(=O)(=O)N(Cc1ccccc1)c1ncc(C(F)(F)F)cc1Cl [Example 146, 4-(N-Benzyl-N-(3-chloro-5-(trifluoromethyl)pyridin-2-yl)sulfamoyl)-3-methoxybenzoic acid]
< 1000	O=C(O)Cc1ccc(S(=O)(=O)N(Cc2ccccc2)c2ncc(C(F)(F)F)cc2Cl)cc1 [Example 147, 2-(4-(N-Benzyl-N-(3-chloro-5-(trifluoromethyl)pyridin-2-yl)sulfamoyl)phenyl)acetic acid]
< 1000	O=C(O)c1ccc(S(=O)(=O)N(Cc2ccc(C3CC3)cc2)c2ncc(C(F)(F)F)cc2Cl)cc1 [Example 150, 4-(N-(3-Chloro-5-(trifluoromethyl)pyridin-2-yl)-N-(4-cyclopropylbenzyl)sulfamoyl)benzoic acid]
< 1000	Cn1cc(-c2ccc(CN(c3ncc(C(F)(F)F)cc3Cl)S(=O)(=O)c3ccc(C(=O)O)cc3)cc2)cn1 [Example 152, 4-(N-(3-Chloro-5-(trifluoromethyl)pyridin-2-yl)-N-(4-(1-methyl-1H-pyrazol-4-yl)benzyl)sulfamoyl)benzoic acid]

Second part, the molecule before the results:

Compound	IC50 [nM]
O=C(O)c1ccc(Cl)c(S(=O)(=O)N(Cc2ccccc2)c2ccc(F)cc2)c1 [Example 123, 3-(N-Benzyl-N-(4-fluorophenyl)sulfamoyl)-4-chlorobenzoic acid]	10000 to 30000
CCOc1ccccc1N(Cc1ccc(Cl)cc1)S(=O)(=O)c1cccc(C(=O)O)c1 [Example 125, 3-(N-(4-Chlorobenzyl)-N-(2-ethoxyphenyl)sulfamoyl) benzoic acid]	1000 to 10000
O=C(O)c1ccc(Cl)c(S(=O)(=O)N(Cc2ccccc2)c2ccccc2)c1 [Example 126, 3-(N-Benzyl-N-phenylsulfamoyl)-4-chlorobenzoic acid]	10000 to 30000
O=S(=O)(c1ccc(Cl)cc1)N(Cc1ccccc1)c1ccccn1 [Example 129, N-Benzyl-4-chloro-N-(pyridin-2-yl)benzene-sulfonamide]	1000 to 10000
O=[N+]([O-])c1ccc(S(=O)(=O)N(Cc2ccccc2)c2ccccn2)cc1 [Example 130, N-Benzyl-4-nitro-N-(pyridin-2-yl)benzene-sulfonamide]	1000 to 10000
COc1ccc(S(=O)(=O)N(Cc2ccccc2)c2ccccn2)cc1 [Example 132, N-Benzyl-4-methoxy-N-(pyridin-2-yl)benzene-sulfonamide]	1000 to 10000
Cc1ccc(S(=O)(=O)N(Cc2ccccc2)c2ccccn2)cc1[N+](=O)[O-] [Example 133, N-Benzyl-4-methyl-3-nitro-N-(pyridin-2-yl) benzenesulfonamide]	1000 to 10000
COc1ccc(N(C(C)c2ccc(C)cc2)S(=O)(=O)c2cc(Cl)ccc2F)cc1 (stereo not drawn) [Example 134, 5-Chloro-2-fluoro-N-(4-methoxyphenyl)-N-(1-p-tolylethyl)benezene-sulfonamide]	1000 to 10000
COc1ccc(OC)c(C(C)N(c2ccc(F)cc2)S(=O)(=O)c2ccc(F)cc2C)c1 (stereo not drawn) [Example 135, N-(1-(2,5-Dimethoxyphenyl)ethyl)-4-fluoro-N-(4-fluoro-phenyl)-2-methylbenzene-sulfonamide]	1000 to 10000
COc1ccc(C(C)N(c2ccc(OC)cc2)S(=O)(=O)c2ccc(C)c(Cl)c2)cc1 (stereo not drawn) [Example 137, 3-Chloro-N-(4-methoxyphenyl)-N-(1-(4-methoxy-phenyl)ethyl)-4-methyl benzenesulfonamide]	10000 to 30000
COc1cccc(C(C)N(c2cccc(Cl)c2)S(=O)(=O)c2ccc(F)cc2C)c1 (stereo not drawn) [Example 139, N-(3-Chlorophenyl)-4-fluoro-N-(1-(3-methoxy-phenyl)ethyl)-2-methyl-benzenesulfonamide]	1000 to 10000
C[Si](C)(C)c1ccc(CN(c2ncc(C(F)(F)F)cc2Cl)S(=O)(=O)c2ccc(C(=O)O)cc2)cc1 [Example 140, 4-(N-(3-Chloro-5-(trifluoromethyl)pyridin-2-yl)-N-(4-(trimethylsilyl)benzyl)sulfamoyl)benzoic acid]	< 1000
O=C(O)c1ccc(S(=O)(=O)N(CC2CCN(c3ccccn3)CC2)c2ncc(C(F)(F)F)cc2Cl)cc1 [Example 142, 4-(N-(3-Chloro-5-(trifluoromethyl)pyridin-2-yl)-N-((1-(pyridin-2-yl)piperidin-4-yl)methyl)sulfamoyl)benzoic acid]	< 1000
Cc1cc(S(=O)(=O)N(Cc2ccccc2)c2ncc(C(F)(F)F)cc2Cl)ccc1C(=O)O [Example 143, 4-(N-Benzyl-N-(3-chloro-5-(trifluoromethyl)pyridin-2-yl)sulfamoyl)-2-methylbenzoic acid]	< 1000
O=S(=O)(c1ccc(O)nc1)N(Cc1ccccc1)c1ncc(C(F)(F)F)cc1Cl [Example 144, N-Benzyl-N-(3-chloro-5-(trifluoromethyl)pyridin-2-yl)-6-hydroxypyridine-3-sulfonamide]	< 1000
O=C(O)c1ccc(S(=O)(=O)N(CCc2ccccc2)c2ncc(C(F)(F)F)cc2Cl)cc1 [Example 148, 4-(N-(3-Chloro-5-(trifluoromethyl)pyridin-2-yl)-N-phenethylsulfamoyl)benzoic acid]	< 1000
O=C(O)c1ccc(S(=O)(=O)N(Cc2ccccc2)c2ncc(C(F)(F)F)cc2C2CC2)cc1 [Example 149, 4-(N-Benzyl-N-(3-cyclopropyl-5-(trifluoromethyl)pyridin-2-yl)sulfamoyl)benzoic acid]	< 1000
O=C(O)c1ccc(S(=O)(=O)N(Cc2ccccc2)c2ncc(C(F)(F)F)cc2Br)cc1 [Example 151, 4-(N-Benzyl-N-(3-bromo-5-(trifluoromethyl)pyridin-2-yl)sulfamoyl)benzoic acid]	< 1000
